Laboratory results taken from patent publication US20250205135A1, “COMPOSICION DE EXTRACTOS VEGETALES PARA PALIAR LOS EFECTOS DEL ENVEJECIMIENTO O RETRASO DE LA SENESCENCIA CELULAR” (MONTELOEDER S.L., priority 2022, published 2025).

Tested on: normal human dermal fibroblasts (NHDF)
Assay: MTT cell proliferation assay in fibroblasts pre-aged with H2O2
Format: cell-based
Conditions: EGF 20 ng/ml positive control, after 3 hours H2O2 (500 μM)
Description: For the cell proliferation assay, normal human dermal fibroblasts (NHDF) were exposed for 3 hours to conditioned ageing medium containing H2O2 (500 μM). After the incubation period, the medium was replaced with fresh medium containing composition A according to the invention at different concentrations for 96 hours. Epidermal growth factor (EGF, 20 ng/ml) was included as positive control and NHDF without pretreatment in H2O2 as non-aged control (Control). Cell viability was quantified using the MTT assay.

Substance: Epidermal growth factor [EGF]
- increase in cell viability compared to the aged control: +22.9%
